Source: PMC10010643 (Cancer Chemotherapy and Pharmacology, 2023)
Where “and” joins values, the source holds several entries; their conditions need not be identical. Identical values can stand only once.

Tests used:
[1] = Safety and tolerability, Part B multiple ascending-dose phase in healthy participants; assay type: in vivo, human
Method: Following review of safety, tolerability, and PK data from cohorts A1–A6, participants received twice-daily doses (BID) under fasted conditions on days 1–9 and a final single dose in the morning of day 10. […] There was one treatment period and all participants stayed at the CRU from day − 1 until the morning of day 11 (24 h after the final dose on day 10). All were to return for a follow-up visit 5–7 days after their final dose.
Safety and tolerability assessments included adverse event (AE) monitoring, physical examinations, laboratory assessments (hematology, clinical chemistry, and urinalysis), vital signs (blood pressure, pulse rate, and body temperature) and ECG.
No formal statistical assessment was performed for the safety analysis.

[2] = test system: programmed cell death protein 1 and PD-L1; conditions: pembrolizumab and atezolizumab; cited from earlier work

OC[C@H]1O[C@H](Sc2cncc(Br)c2)[C@H](O)[C@@H](n2cc(-c3cc(F)c(F)c(F)c3)nn2)[C@H]1O [GB1211]
Number of TEAEs ([1]; 50 mg BID): 8
Participants discontinued due to TEAEs ([1]; 50 mg BID): 0 n (%)
Participants with SAEs ([1]; 50 mg BID): 0 n (%)
Participants with TEAEs ([1]; 50 mg BID): 4 (50.0) n (%) and 4 (50.0%) n (%)
Severity (all TEAEs): Mild ([1]; 50 mg BID): 2 (25.0) n (%)
Severity (all TEAEs): Moderate ([1]; 50 mg BID): 2 (25.0) n (%)
Severity (all TEAEs): Severe ([1]; 50 mg BID): 0 n (%)
Severity (all TEAEs): Total ([1]; 50 mg BID): 4 (50.0) n (%)
Severity (possibly related to study treatment): Mild ([1]; 50 mg BID): 2 (25.0) n (%)
Severity (possibly related to study treatment): Moderate ([1]; 50 mg BID): 2 (25.0) n (%)
Severity (possibly related to study treatment): Severe ([1]; 50 mg BID): 0 n (%)
Severity (possibly related to study treatment): Total ([1]; 50 mg BID): 4 (50.0) n (%)
TEAE Abdominal distension, participants ([1]; 50 mg BID): 0 n (%)
TEAE Abdominal pain upper, participants ([1]; 50 mg BID): 0 n (%)
TEAE Abdominal pain, participants ([1]; 50 mg BID): 0 n (%)
TEAE Arthralgia, participants ([1]; 50 mg BID): 0 n (%)
TEAE Constipation, participants ([1]; 50 mg BID): 0 n (%)
TEAE Dysuria, no. of AEs ([1]; 50 mg BID): 1
TEAE Dysuria, participants ([1]; 50 mg BID): 1 (12.5%) n (%)
TEAE Gastrointestinal disorders, participants ([1]; 50 mg BID): 0 n (%)
TEAE Headache, no. of AEs ([1]; 50 mg BID): 5
TEAE Headache, participants ([1]; 50 mg BID): 4 (50.0%) n (%)
TEAE Injury, poisoning and procedural complications, no. of AEs ([1]; 50 mg BID): 1
TEAE Injury, poisoning and procedural complications, participants ([1]; 50 mg BID): 1 (12.5%) n (%)
TEAE Limb injury, no. of AEs ([1]; 50 mg BID): 1
TEAE Limb injury, participants ([1]; 50 mg BID): 1 (12.5%) n (%)
TEAE Menstruation irregular, no. of AEs ([1]; 50 mg BID): 1
TEAE Menstruation irregular, participants ([1]; 50 mg BID): 1 (12.5%) n (%)
TEAE Musculoskeletal and connective tissue disorders, participants ([1]; 50 mg BID): 0 n (%)
TEAE Nervous system disorders, no. of AEs ([1]; 50 mg BID): 5
TEAE Nervous system disorders, participants ([1]; 50 mg BID): 4 (50.0%) n (%)
TEAE Pain in extremity, participants ([1]; 50 mg BID): 0 n (%)
TEAE Pollakiuria, participants ([1]; 50 mg BID): 0 n (%)
TEAE Renal and urinary disorders, no. of AEs ([1]; 50 mg BID): 1
TEAE Renal and urinary disorders, participants ([1]; 50 mg BID): 1 (12.5%) n (%)
TEAE Reproductive system and breast disorders, no. of AEs ([1]; 50 mg BID): 1
TEAE Reproductive system and breast disorders, participants ([1]; 50 mg BID): 1 (12.5%) n (%)
Number of TEAEs considered moderate ([1]; 50 mg BID cohort): Two
Number of TEAEs ([1]; 100 mg BID): 8
Participants discontinued due to TEAEs ([1]; 100 mg BID): 0 n (%)
Participants with SAEs ([1]; 100 mg BID): 0 n (%)
Participants with TEAEs ([1]; 100 mg BID): 3 (37.5) n (%) and 3 (37.5%) n (%)
Severity (all TEAEs): Mild ([1]; 100 mg BID): 3 (37.5) n (%)
Severity (all TEAEs): Moderate ([1]; 100 mg BID): 0 n (%)
Severity (all TEAEs): Severe ([1]; 100 mg BID): 0 n (%)
Severity (all TEAEs): Total ([1]; 100 mg BID): 3 (37.5) n (%)
Severity (possibly related to study treatment): Mild ([1]; 100 mg BID): 3 (37.5) n (%)
Severity (possibly related to study treatment): Moderate ([1]; 100 mg BID): 0 n (%)
Severity (possibly related to study treatment): Severe ([1]; 100 mg BID): 0 n (%)
Severity (possibly related to study treatment): Total ([1]; 100 mg BID): 3 (37.5) n (%)
TEAE Abdominal distension, no. of AEs ([1]; 100 mg BID): 1
TEAE Abdominal distension, participants ([1]; 100 mg BID): 1 (12.5%) n (%)
TEAE Abdominal pain upper, no. of AEs ([1]; 100 mg BID): 1
TEAE Abdominal pain upper, participants ([1]; 100 mg BID): 1 (12.5%) n (%)
TEAE Abdominal pain, participants ([1]; 100 mg BID): 0 n (%)
TEAE Arthralgia, no. of AEs ([1]; 100 mg BID): 1
TEAE Arthralgia, participants ([1]; 100 mg BID): 1 (12.5%) n (%)
TEAE Constipation, no. of AEs ([1]; 100 mg BID): 2
TEAE Constipation, participants ([1]; 100 mg BID): 2 (25.0%) n (%)
TEAE Dysuria, participants ([1]; 100 mg BID): 0 n (%)
TEAE Gastrointestinal disorders, no. of AEs ([1]; 100 mg BID): 4
TEAE Gastrointestinal disorders, participants ([1]; 100 mg BID): 2 (25.0%) n (%)
TEAE Headache, participants ([1]; 100 mg BID): 0 n (%)
TEAE Injury, poisoning and procedural complications, participants ([1]; 100 mg BID): 0 n (%)
TEAE Limb injury, participants ([1]; 100 mg BID): 0 n (%)
TEAE Menstruation irregular, participants ([1]; 100 mg BID): 0 n (%)
TEAE Musculoskeletal and connective tissue disorders, no. of AEs ([1]; 100 mg BID): 2
TEAE Musculoskeletal and connective tissue disorders, participants ([1]; 100 mg BID): 1 (12.5%) n (%)
TEAE Nervous system disorders, participants ([1]; 100 mg BID): 0 n (%)
TEAE Pain in extremity, no. of AEs ([1]; 100 mg BID): 1
TEAE Pain in extremity, participants ([1]; 100 mg BID): 1 (12.5%) n (%)
TEAE Pollakiuria, no. of AEs ([1]; 100 mg BID): 2
TEAE Pollakiuria, participants ([1]; 100 mg BID): 2 (25.0%) n (%)
TEAE Renal and urinary disorders, no. of AEs ([1]; 100 mg BID): 2
TEAE Renal and urinary disorders, participants ([1]; 100 mg BID): 2 (25.0%) n (%)
TEAE Reproductive system and breast disorders, participants ([1]; 100 mg BID): 0 n (%)
Participants with a TEAE possibly related to treatment, GB1211 ([1]; Part B): 7
Number of TEAEs on GB1211 ([1]; Part B, all GB1211 doses): 16
Participants with TEAEs on GB1211 ([1]; Part B, all GB1211 doses): 7
Galectin-3-induced inhibition of immune checkpoint inhibitor binding [2]: reverses
